Experiments:
[1] = tested on: HeLa; test: Compound was evaluated for toxicity against HeLa S3 cells; format: functional, cell-based; details: Homo sapiens
[2] = tested on: GH3; test: Compound was evaluated for toxicity against GH3 cells; format: functional, cell-based; details: Rattus norvegicus

C[C@]12CC[C@@H]3c4ccc(OC(=O)N(CCCl)CCCl)cc4CC[C@H]3[C@@H]1CC[C@@H]2O [ESTRAMUSTINE] was tested, and the IC50 [1] was 3.4 µM.

In the case of C[C@]12CC[C@@H]3c4ccc(O)cc4CC[C@H]3[C@@H]1CC[C@@]2(O)[C@@H]1CO1, the IC50 [2] is reported as 17.7 µM and the IC50 [1] is reported as 18.6 µM.

With C=C[C@@]12COC(=O)C(=C)[C@@H]1[C@H]1OC(=O)C(=C)[C@@H]1[C@@H](O)C2 [VERNOLEPIN] the IC50 [2] was 5.2 µM and the IC50 [1] was 3.5 µM.

C[C@]12CC[C@@H]3c4ccc(O)cc4CC[C@H]3[C@@H]1CC[C@@]2(O)[C@H]1CO1 showed an IC50 [2] of 5.5 µM and an IC50 [1] of 6.5 µM.
